Measured values as given in patent US5872144A, “4-aminoethoxyindazole derivatives” (American Home Products Corporation, priority 1998, dated 1999).

Key:
[1] = biological target: T1, dopamine autoreceptor (D2) (Rattus norvegicus, UniProt P61169); test: 3H-quinpirole (D2 Quin.) binding, homogenized rat striatal brain tissue, affinity for dopamine autoreceptor
T1 construct: homogenized rat striatal brain tissue; from tissue; host or cells: rat striatum, homogenate
Procedure: Affinity for the dopamine autoreceptor was established by a modification of the standard experimental test procedure of Seemen and Schaus, European Journal of Pharmacology 203, 105-109, 1991, wherein homogenized rat striatal brain tissue is incubated with ^3 H-quinpirole (Quin.) and various concentrations of test compound, filtered and washed and counted in a Betaplate scintillation counter.

[2] = system: dopamine D2 receptor; test: Intrinsic activity at the dopamine D2 receptor, ratio LowAg/HighAg; assay type: binding; details: D2 Spiper IC50 / D2 Quin. IC50 (LowAg/HighAg)
Source text: Efforts to induce antipsychotic activity with dopamine autoreceptor agonists have been successful (Dorsini et al., Adv. Biochem. […] et al., Science, 200, 567-568, 1975; and […] et al., Psychiatry, 398-402, 1986). […] Pharm., 42, 432-438, (1993)]. Intrinsic activity is predicted using the ratio of the "low-affinity agonist" (LowAg) state of the receptor and the "high-affinity agonist" ([…]) state of the receptor, […]. These ratios correlate with the agonist, partial agonist, and antagonist activities of a given compound, which activities characterize a compounds ability to elicit an antipsychotic effect. […] Activation of the dopamine autoreceptors results in reduced neuronal firing a well as inhibition of dopamine synthesis and release and therefore provide a means of controlling hyperactivity of the dopaminergic systems. The compounds of this invention were also found to have high intrinsic activity and therefore they can behave as the natural neurotransmitter i.e. as full agonists. […] Affinity for the dopamine autoreceptor was established by a modification of the standard experimental test procedure of Seemen and Schaus, European Journal of Pharmacology 203, 105-109, 1991, wherein homogenized rat striatal brain tissue is incubated with ^3 H-quinpirole (Quin.) and various concentrations of test compound, filtered and washed and counted in a Betaplate scintillation counter. […]

[3] = biological target: T2, dopamine D-2 receptor (Rattus norvegicus, UniProt P61169); test: 3H-spiroperidol (D2 Spiper.) binding, homogenized limbic brain tissue
T2 construct: from tissue; host or cells: limbic brain tissue, homogenate
Procedure: High affinity for the dopamine D-2 receptor was established by the standard experimental test procedure of Fields, et al., Brain Res., 136, 578 (1977) and Yamamura et al., eds., Neurotransmitter Receptor Binding, Raven Press, N.Y. (1978) wherein homogenized limbic brain tissue is incubated with ^3 H-spiroperidol (Spiper.) and various concentrations of test compound, filtered and washed and shaken with Hydrofluor scintillation cocktail (National Diagnostics) and counted in a Packard 460 CD scintillation counter.

T1 sequence (P61169 whole entry): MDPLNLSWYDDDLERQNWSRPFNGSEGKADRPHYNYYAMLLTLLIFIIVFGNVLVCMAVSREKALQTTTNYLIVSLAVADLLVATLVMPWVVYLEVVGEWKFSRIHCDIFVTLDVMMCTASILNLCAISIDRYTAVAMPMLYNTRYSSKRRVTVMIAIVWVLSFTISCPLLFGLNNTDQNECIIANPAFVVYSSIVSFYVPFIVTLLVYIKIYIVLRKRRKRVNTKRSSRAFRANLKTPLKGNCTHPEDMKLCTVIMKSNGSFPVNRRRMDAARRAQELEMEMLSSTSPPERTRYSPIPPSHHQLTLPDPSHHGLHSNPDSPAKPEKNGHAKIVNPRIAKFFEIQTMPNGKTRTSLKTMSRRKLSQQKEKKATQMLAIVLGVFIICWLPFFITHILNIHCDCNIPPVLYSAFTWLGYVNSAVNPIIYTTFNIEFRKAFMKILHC
T2 sequence (P61169 whole entry): as above

| IC50 [1] [nM] | Ratio [2] | IC50 [3] [nM] | Compound |
| --- | --- | --- | --- |
| 2.23 | 151 | 333 | c1ccc(CNCCOc2cccc3[nH]ncc23)cc1 [Example 1, Benzyl-[2-(1H-indazo-4-yloxy)-ethyl]-amine] |
| 4.3 | 254 | 1090 | c1csc(CNCCOc2cccc3[nH]ncc23)c1 [Example 2, [2-(1H-Indazol-4-yloxy)-ethyl]-thiophen-2-ylmethyl-amine] |
| 2.78 |  |  | c1cc(OCCNCc2ccsc2)c2cn[nH]c2c1 [Example 3, [2-(1H-Indazol-4-yloxy)-ethyl]-thiophen-3-ylmethyl-amine] |
